Experimental data published in patent US20090298938A1, “USE OF SEMI SYNTHETIC ANALOGUES OF BOSWELLIC ACIDS FOR ANTICANCER ACTIVITY” (COUNCIL OF SCIENTIFIC & INDUSTRIAL RESEARCH, priority 2008, published 2009).
Entries after “also recorded” stand apart in the source; their conditions may differ.

How the values were obtained:
Type in all cases: cell-based, human
HL-60 cells [1] = assay: Reactive oxygen species (peroxides), DCFH-DA flow cytometry
Description: FIG. 4. Boswellic acid analogs produce early generation of reactive oxygen species. In order to determine the intracellular content of intracellular peroxides, HL-60 cells in both treated and untreated control groups of 1×10^6 cells were incubated with […] of DCFH-DA for 30 min prior to termination of a 6 hr treatment with the indicated concentrations of compound designated “c” which is the compound of formula 1, wherein R3=COCH2CH2CH3, […], R4+R5=O. Treatment with the compound designated “c” was associated with an increase in DCFH-DA derived fluorescence. The compound of formula 1 where R3=COCH2CH2CH3, […], R4+R5=O was taken as a prototype to investigate the mechanism of cell death mediated by induction of apoptosis. […] At the highest concentration used the peroxide generation was relatively of low order because of ROS associated cell death. BSO was used as positive control. The endogenous generation of peroxides was measured using a non-fluorescent probe DCFH-DA which upon entering the cell is deesterified to DCFH which is oxidized by the reactive oxygen species to a fluorescent product DCF that remains entrapped within the cells offering analysis by flow cytometery [[…] et al, 2006]. […] Thereafter cells were washed and stained for 1 hr with DCFH-DA and analysed on flow cytometer. […]

caspase-9 in HL-60 cells = assay: Caspase-9 activation, fluorometric, HL-60; conditions: HL-60, 50 μM, 6 hours
Description: FIGS. 8A-8B. Caspase activation in HL-60 cells by boswellic acid analogs. FIG. 8A depicts the results of a colorimetric evaluation of caspase-3 activation in HL-60 cells and Molt-4 cells. Cells were treated with a compound designated “c” (formula 1 compound wherein R3=COCH2CH2CH3, […] and R4+R5=O) at concentrations indicated for 6 hours. Caspase-3 inhibitor (DEVD-fmk) was added 30 min prior to the addition of caspase-3 substrate (DEVD-pNA) to the lysate. Data are mean of triplicate determinations with coefficients of variation less than 10%. […] Caspase-9 inhibitor LEHD-CHO was added 30 min prior to the addition of caspase-9 substrate to validate the specificity of caspase-9. Caspase-9 activity was measured fluorometrically. Data are a mean of triplicate determinations with a coefficient of variation of less than 10%. Caspases are important cysteine-proteases that are involved in the cleavage of DNA specifically producing 180 bp DNA fragments. The enzymes act through different signaling pathways. […] Caspase-9 activity was determined fluorometrically and caspase-3 colorimetrically using kits and the instruction provided by the manufacturer (BD pharmingen, USA). Caspase-3 activity was determined in both Molt-4 and HL-60 leukemia cells while caspase-9 was determined in HL-60 cells.

HL-60 cells [2] = assay: Apoptosis induction, annexin V-FITC/PI flow cytometry; conditions: HL-60, 15 μM, 6 hr
Description: FIG. 2. Comparative efficacy of apoptosis induction: Measurement by flow cytometry. The effects of boswellic acid on the relative efficiency of induction of apoptosis and necrosis in HL-60 cells were analyzed by flow cytometry. Cells were incubated with each analog for 6 hrs and stained with annexin V-FITC labeled. The dot plots are representative of one of the two separate experiments. Values in the lower right quadrant represent the apoptotic population in the UR as post-apoptotic and in the UL as necrotic. Where a=compound of formula 1, R3=COCH2CH2CH3, […], R4=[…], b=compound of formula 1, R3=COCH2CH3R1=H, R4=[…], c=compound of formula 1, R3=COCH2CH2CH3, […], R4+R5=O, d=compound of formula 1, […], R3=COCH2CH3, R4=[…], e=compound of formula 1, R3=COCH2CH2CH3, […], R4=[…], f=β-boswellic acid. Compounds of formula 1 where […], R3=COCH2CH3R3=[…]; R3=COCH2CH2CH3, […], R4=[…] and natural β-boswellic acid produced low level of apoptotic cell population (approx. 10%) compared to compound of formula 1 where R3=COCH2CH2CH3, […], R4=[…] (17%), […], R3=COCH2CH3, R4=[…] (30%) and where R3=COCH2CH2CH3, […], R4+R5=O (23%), although the combined apoptotic and post-apoptotic population was about 32% with the last three analogs. Confirmation that boswellic acid analogs are potent inducers of apoptosis may also be obtained from DNA fragmentation assay. During the early events of apoptosis, phospholipid phosphatidyl serine of plasma membrane is externalized, which has very high affinity for annexinV antibody. Effect of a single concentration (15 μM) of each boswellic acid analogs on the relative efficiency of induction of apoptosis and necrosis in HL-60 cells was analyzed by flow cytometry. Cells were incubated with each analog for 6 hr and stained with Annexin V-FITC/PI. Camptothecin at 4 μM was used as positive control. There after, cells were washed and stained with FITC conjugated annexinV antibody and propidium iodide. The cells (10,000) were analysed by flow cytometery (BD, LSR) using ProQuest software.

HL-60 cells [3] = assay: Endogenous nitric oxide, DAF-2-DA flow cytometry; conditions: HL-60, 4 hr
Description: FIG. 5. Copious early endogenous formation of nitric oxide by compound of formula 1 where R3=COCH2CH2CH3, R1=H, R4+R5=O in HL-60 cells. Nitric Oxide (NO) production was measured by flow cytometry in the FL1 channel using DAF-2-DA (an NO probe) after exposing HL-60 cells for 4 hours to indicated concentrations of SS-145. To investigate the contribution of iNOS to NO production, cells were pre-incubated with iNOS inhibitor sMIT (0.5 mM) for 1 hour prior to treatment with a compound designated “c” (a compound of formula 1 wherein R3=COCH2CH2CH3, R1=H, R4+R5=O). NO and peroxide generation are the early events leading to oxidative stress in the cells. […] It is possible that NO stimulated mitochondrial superoxide generation which together with NO may form peroxynitrite, a dangerous species in producing oxidative damage to the cells and responsible for production of apoptosis
Measurement of in situ NO generation involved the use of a fluorescent probe diaminofluoresceine-2-diacetate, which is permeated easily into the cells. Once inside the cell it binds NO soon it is formed and emits fluorescence [H. Kojima et al, 1998]. For this purpose, the HL-60 cells were incubated with DAF-2-DA for 30 min before being incubated with the indicated concentration of SS-145 for 4 hr. Cells were analyzed on flow cytometer in FL-1 channel for NO. […]

Question: For CCCC(=O)OC1CCC2(C)C(CCC3(C)C2C(=O)C=C2C4C(C)C(C)CCC4(C)CCC23C)C1(C)C(=O)O (stereo not drawn) [R3=COCH2CH2CH3, R1=H, R4+R5=O], which “peroxide positive cell population” value (HL-60 cells [1]; HL-60, 50 μg/ml, 6 hr) is on record?
Answer: The value was 79%.

Question: And the “ROS / peroxide generation (concentration dependence)” value (HL-60 cells [1]; HL-60, 6 hr, DCFH-DA)?
Answer: The value was “concentration related increase in ROS generation; also recorded: dose dependent increase”.

Question: And the caspase-9 activity stimulation (caspase-9 in HL-60 cells)?
Answer: Its caspase-9 activity stimulation is 4-5 fold.

Question: What about the apoptotic cell population (HL-60 cells [2]) of the same compound?
Answer: Its apoptotic cell population is 23%.

Question: And the “combined apoptotic and post-apoptotic population” value (HL-60 cells [2])?
Answer: Its value is “about 32%”.

Question: And the nitric oxide generation (HL-60 cells [3])?
Answer: The nitric oxide generation was “early generation of NO; also recorded: all the cells formed NO within 6 hr irrespective of the concentration”.
